Laboratory results reported in the Kinase Knowledgebase extract (Sharma et al. 2016).

Legend:
[1] = molecular target: EGFR (human), P00533 [WT]
[2] = molecular target: EGFR (human), P00533 [Inhibition of EGFR(L858RT/790M) Kinase Activity]
[3] = molecular target: EGFR (human) (UniProt P00533); conditions: hcc827
EGFR (human), sequence (P00533 whole entry, looked up): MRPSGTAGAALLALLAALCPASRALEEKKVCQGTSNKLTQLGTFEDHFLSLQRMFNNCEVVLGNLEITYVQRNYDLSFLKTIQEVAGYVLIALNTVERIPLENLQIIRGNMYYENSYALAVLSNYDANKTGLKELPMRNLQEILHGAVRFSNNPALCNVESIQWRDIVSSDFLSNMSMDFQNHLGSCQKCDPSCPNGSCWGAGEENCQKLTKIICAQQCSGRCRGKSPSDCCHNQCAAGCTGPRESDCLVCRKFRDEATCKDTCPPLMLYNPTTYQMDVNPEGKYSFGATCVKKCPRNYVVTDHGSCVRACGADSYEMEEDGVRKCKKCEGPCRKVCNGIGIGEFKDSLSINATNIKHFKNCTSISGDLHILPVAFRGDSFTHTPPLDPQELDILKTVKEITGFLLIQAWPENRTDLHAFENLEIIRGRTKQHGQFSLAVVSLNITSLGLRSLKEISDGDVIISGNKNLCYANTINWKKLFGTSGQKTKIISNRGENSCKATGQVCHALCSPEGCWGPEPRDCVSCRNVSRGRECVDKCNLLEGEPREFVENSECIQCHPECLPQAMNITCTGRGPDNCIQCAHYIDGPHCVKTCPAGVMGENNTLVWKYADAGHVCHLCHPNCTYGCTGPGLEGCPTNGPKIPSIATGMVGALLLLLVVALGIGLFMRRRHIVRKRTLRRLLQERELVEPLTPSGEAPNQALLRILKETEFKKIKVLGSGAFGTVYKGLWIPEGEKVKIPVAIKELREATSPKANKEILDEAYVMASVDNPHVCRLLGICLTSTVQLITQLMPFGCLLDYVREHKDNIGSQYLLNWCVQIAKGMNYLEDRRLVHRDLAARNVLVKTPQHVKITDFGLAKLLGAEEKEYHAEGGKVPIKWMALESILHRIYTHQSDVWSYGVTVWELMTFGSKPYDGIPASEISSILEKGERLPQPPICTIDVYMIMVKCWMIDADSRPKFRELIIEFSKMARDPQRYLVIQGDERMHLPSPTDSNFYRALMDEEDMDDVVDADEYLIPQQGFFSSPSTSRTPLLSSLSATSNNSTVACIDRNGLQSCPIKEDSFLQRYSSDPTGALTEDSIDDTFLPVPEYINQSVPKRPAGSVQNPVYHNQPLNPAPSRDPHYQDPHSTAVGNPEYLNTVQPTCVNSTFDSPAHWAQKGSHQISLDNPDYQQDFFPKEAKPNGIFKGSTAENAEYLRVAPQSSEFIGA

EGFR (human), P00533 [Inhibition of EGFR(L858RT/790M) Kinase Activity], sequence (P00533 whole entry, looked up, change not shown): as the sequence (P00533 whole entry, looked up) above
EGFR (human), P00533 [WT], sequence (P00533 whole entry, looked up): as above

SMILES	IC50 [1] [nM]	IC50 [2] [nM]	IC50 [3] [nM]
CN(C)C/C=C/C(=O)N1CCc2c(sc3ncnc(N[C@H](COCc4ccccn4)c4ccccc4)c23)C1	< 59	500 to 2500	1 to 99
CC#CC(=O)Nc1cccc(-c2c(-c3ccccc3)oc3ncnc(N[C@H](CO)c4ccccc4)c23)c1	< 59	500 to 2500	1 to 99
C=CC(=O)Nc1cccc(-c2c(-c3ccccc3)oc3ncnc(N[C@H](C)c4ccccc4)c23)c1	101 to 900	500 to 2500	1 to 99
CN(C)C/C=C/C(=O)N1CCc2c(sc3ncnc(N[C@H](CO)c4ccccc4)c23)C1	< 59	10 to 499	1 to 99
CN(C)C/C=C/C(=O)Nc1cccc(-c2c(-c3ccccc3)oc3ncnc(N[C@H](CO)c4ccccc4)c23)c1	< 59	10 to 499	1 to 99
C=CC(=O)N1CCc2c(sc3ncnc(N[C@@H](CCO)c4ccccc4)c23)C1	101 to 900	500 to 2500	301 to 999
C=CC(=O)N1CCc2c(sc3ncnc(N[C@H](CO)c4ccccc4)c23)C1	< 59	10 to 499	1 to 99
C=CS(=O)(=O)N1CCc2c(sc3ncnc(N[C@H](CO)c4ccccc4)c23)C1	60 to 100	500 to 2500	100 to 300
CN1CCN(C/C=C/C(=O)N2CCc3c(sc4ncnc(N[C@H](CO)c5ccccc5)c34)C2)CC1	< 59	500 to 2500	1 to 99

Further lines, results first:

IC50 [1] [nM]	IC50 [2] [nM]	IC50 [3] [nM]	SMILES
< 59	500 to 2500	1 to 99	C[C@@H](Nc1ncnc2sc3c(c12)CCN(C(=O)/C=C/CNC1CC1)C3)c1ccccc1
< 59	10 to 499	1 to 99	C=CC(=O)N1CCc2c(sc3ncnc(N[C@H](COC)c4ccccc4)c23)C1
< 59	500 to 2500	1 to 99	CC[C@@H](Nc1ncnc2sc3c(c12)CCN(C(=O)/C=C/CN(CC)CC)C3)c1ccccc1
< 59	500 to 2500	301 to 999	C=CC(=O)N1CCc2c(sc3ncnc(N[C@H](CO)Cc4ccccc4)c23)C1
< 59	10 to 499	1 to 99	C=CC(=O)N1CCc2c(sc3ncnc(N[C@H](COCc4cccc(OC)c4)c4ccccc4)c23)C1
< 59	10 to 499	1 to 99	C=CC(=O)N1CCc2c(sc3ncnc(N[C@H](COCc4ccccc4)c4ccccc4)c23)C1
< 59	500 to 2500	1 to 99	C=CC(=O)N1CCc2c(sc3ncnc(N[C@H](C)c4ccccc4)c23)C1
< 59	10 to 499	1 to 99	C=CC(=O)N1CCc2c(sc3ncnc(N[C@H](COCc4cccc(F)c4)c4ccccc4)c23)C1
